This experiment is described as follows: Inhibition of human Src expressed in rat fibroblasts assessed as anchorage independent growth after 3 days.

Structures are written as SMILES. Bounds are passed on as bounds.

For orientation: IC50 means the concentration that gives 50% inhibition. Consider `COc1cc(Nc2c(C#N)cnc3cc(-c4ncccc4CN4CCOCC4)ccc23)c(Cl)cc1Cl` [4-(2,4-dichloro-5-methoxyphenylamino)-7-(3-(morpholinomethyl)pyridin-2-yl)quinoline-3-carbonitrile], for which the IC50 was more than 10 µM.
